Assay in all cases: NCI tumour cell line growth inhibition, 48 h
The subject of assay [1] is 786-0.
Assay [2] deals with A498.
Assay [3] deals with CCRF-CEM.
For assay [4], the system named is COLO 205.
Assay [5] concerns EKVX.
Assay [6] has as its system HCC 2998.
Assay [7] deals with HCT-116.
Assay [8] has as its system HT-29.
Assay [9] concerns IGROV-1.
For assay [10], the system named is LOX IMVI.
Assay [11] concerns OVCAR-4.
The subject of assay [12] is SK-MEL-5.
The subject of assay [13] is TK-10.
Assay [14] deals with U-251.
Assay [15] relates to SR.
For assay [16], the system named is CAKI-1.

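Dose response: 5 concentrations. Exposure: 48 h. Format: 96-well plates. Endpoint: linear interpolation; highest concentration if not reached. At the GI50, growth is halved.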 Activity calls are given as the source filed them. Rule as the data show it: active = GI50 up to about 1.1 µM and inactive = higher.

As to `CC1(C)CCCC2(C)C3C(O)CC2(C)C(O)C31` (stereo not drawn), the GI50 was < 0.01 µM (active) in [1]; > 100 µM (inactive) in assay [2]; > 100 µM (inactive) in assay [3]; > 100 µM (inactive) in assay [4]; > 100 µM (inactive) in assay [5]; > 100 µM (inactive) in assay [6]. Moreover, the GI50 in [7], in assay [8], in [9], in assay [10], in [11] and in assay [12] was > 100 µM (inactive) each time. Also, the GI50 in assay [13] and in [14] was > 100 µM (inactive) each time.
In the case of `CC(C)(C)C1=Nc2c(Br)cc(C(C)(C)C)cc2C(C(F)(F)F)(C(F)(F)F)O1`, the GI50 in assay [1] is 35.3 µM (inactive); in assay [3], 32.7 µM (inactive); in [4] it was > 100 µM (inactive); in assay [5], > 100 µM (inactive); in assay [6] it was 29.9 µM (inactive); in assay [7], 41.2 µM (inactive). The GI50 in assay [8] is 57.9 µM (inactive); in assay [9], 65.5 µM (inactive); in assay [10] it was 16.2 µM (inactive); in assay [11], > 100 µM (inactive); in assay [12], 83.6 µM (inactive); in assay [15], 54 µM (inactive). For the same compound, the GI50 was > 100 µM (inactive) in assay [13] and 22.9 µM (inactive) in assay [14].
For the compound `Cc1ccc(S(=O)(=O)N/N=C(/CC(=O)c2c(C)[n+]([O-])c3ccccc3[n+]2[O-])C(=O)Nc2ccc(C)c(C)c2)cc1`, the GI50 is > 100 µM (inactive) in assay [1]; > 100 µM (inactive) in assay [2]; > 100 µM (inactive) in assay [16]; 34.7 µM (inactive) in assay [4]; > 100 µM (inactive) in [5]; 90.4 µM (inactive) in assay [6]. For the same compound, the GI50 in assay [7] was 38.2 µM (inactive); in assay [8], 50.9 µM (inactive); in assay [9], 62.8 µM (inactive); in assay [11] it was 33 µM (inactive); in assay [14], 28.5 µM (inactive).
As to `O=C1c2ccccc2C2(O)N(c3ccccc3)C(=S)N(c3ccccc3)C12O` (stereo not drawn), the GI50 in assay [1], in [2], in assay [16], in assay [3], in assay [4] and in [5] was > 100 µM (inactive) in each case. The GI50 in [6], in assay [7], in assay [8], in assay [9], in [10] and in assay [11] was > 100 µM (inactive) in each case. Besides, the GI50 in [12], in assay [13] and in assay [14] was > 100 µM (inactive) in each case.
For the compound `COc1ccccc1NC(=O)C1=C(C)NC(C)=C(C(=O)Nc2ccccc2OC)C1C1=CC=COC1`, the GI50 is 11.5 µM (inactive) in assay [1]; 6.17 µM (inactive) in assay [2]; 4.65 µM (inactive) in assay [16]; 7.87 µM (inactive) in [3]; 57 µM (inactive) in [4]; 10.8 µM (inactive) in assay [5]. Besides, the GI50 in [6] was 12.3 µM (inactive); in [7] it was 4.53 µM (inactive); in [8] it was 4.46 µM (inactive); in assay [9] it was 10.8 µM (inactive); in assay [11], 30.5 µM (inactive); in assay [12] it was 5.06 µM (inactive). The GI50 was 16.5 µM (inactive) in [13] and 9.71 µM (inactive) in assay [14].
For `CC1(c2cccc(C3CC4(CCC3=O)OCCCCO4)c2)OCCO1` (stereo not drawn), the GI50 in assay [1], in [2], in [16], in assay [3], in [4] and in assay [6] was > 100 µM (inactive) throughout. For the same compound, the GI50 in assay [7], in assay [8], in assay [9], in [10], in [11] and in assay [12] was > 100 µM (inactive) in each case. Further, the GI50 in assay [13] and in assay [14] was > 100 µM (inactive) each time.
For `CCc1c(OC(C)=O)c2c(NC3OCC(OC(C)=O)C(OC(C)=O)C3OC(C)=O)nc(SC)nc2oc1=O` (stereo not drawn), the GI50 in assay [1], in assay [2], in assay [16], in [3], in assay [4] and in assay [5] was > 100 µM (inactive) in each case. Moreover, the GI50 in assay [6], in [7], in assay [8], in [9], in assay [10] and in assay [11] was > 100 µM (inactive) each time. The GI50 in assay [12], in [13] and in [14] was > 100 µM (inactive) each time.
For the compound `COc1ccc(OC)c2cc(C3(C)SCCCS3)ccc12`, the GI50 in assay [1] was 73.6 µM (inactive); in assay [2] it was > 100 µM (inactive); in assay [16], 61 µM (inactive); in assay [3] it was 71 µM (inactive); in assay [4], > 100 µM (inactive); in assay [5], > 100 µM (inactive). In addition, the GI50 was > 100 µM (inactive) in [6]; 83.4 µM (inactive) in assay [7]; 40.4 µM (inactive) in assay [8]; > 100 µM (inactive) in assay [9]; > 100 µM (inactive) in assay [10]; 60.3 µM (inactive) in [11]. For the same compound, the GI50 in [12] is > 100 µM (inactive); in [13], > 100 µM (inactive); in assay [14] it was 19.3 µM (inactive).
Consider `COc1ncn(C2C=C(CO)C(O)C2O)c(=O)n1` (stereo not drawn), for which the GI50 was > 100 µM (inactive) in assay [1]; > 100 µM (inactive) in assay [2]; < 0.01 µM (active) in assay [16]; > 100 µM (inactive) in assay [4]; > 100 µM (inactive) in assay [5]; > 100 µM (inactive) in [6]. In addition, the GI50 in [7], in assay [9], in assay [11], in [12], in assay [13] and in assay [14] was > 100 µM (inactive) each time.
Consider `CCN(CC)CCCNC(=O)c1ccc([N+](=O)[O-])cc1O`, for which the GI50 in assay [1], in assay [2], in [16], in assay [3], in assay [4] and in assay [5] was > 100 µM (inactive) in each case. For the same compound, the GI50 in assay [6], in assay [8], in assay [9], in assay [10], in assay [11] and in [12] was > 100 µM (inactive) throughout. Also, the GI50 in assay [13] and in [14] was > 100 µM (inactive) throughout.

The values above are taken from ChEMBL document CHEMBL1201862, “PubChem BioAssay data set” (2004).
